Laboratory results: patent publication US20100168167A1, “Piperidinones Useful in the Treatment of Inflammation” (priority 2007, published 2010)
pIC50: −log10 of the molar value.

Each molecule was assayed against T1, PDE4 enzyme (U937 lysate or recombinant hPDE4) (assay: In vitro inhibition of PDE4, Method A ([3H]cAMP SPA enzyme assay)). Conditions: Biological Example 1, Method A.
T1 construct: cDNA containing PDE4D1 was cloned into a baculovirus vector, insect cells (SF9) were then infected and cells cultured to express the PDE4 protein
Format: biochemical, human
Protocol: PDE4 U937 cytoplasmic extracts were prepared by a modified procedure of the assay described in MacKenzie, S. J. and Houslay, M. D., “Action of rolipram on specific PDE4 cAMP phosphodiesterase isoforms and on the phosphorylation of cAMP-response-element-binding protein (CREB) and p38 mitogen-activated protein (MAP) kinase in U937 monocytic cells”, Biochem J. (2000), 347(Pt 2):571-8, by lysis of U937 cells (ATCC: Catalogue No. CRL-159) in M-PER Lysis buffer (Pierce) containing 10% protease inhibitor cocktail (Sigma). The cell lysates were then centrifuged at 30,000 rpm for 15 minutes at 4° C. The supernatants were aliquoted and stored at −80° C.
An alternative source of PDE4 enzymes was from recombinant human PDE4 obtained from baculovirus-SF9 cells expression system. cDNA containing PDE4D1 was cloned into a baculovirus vector, insect cells (SF9) were then infected and cells cultured to express the PDE4 protein. The cells were lysed and used directly in assay or partially purified using standard procedures. The process can be used for other PDE4 and PDE enzymes.
Compounds of the invention were evaluated for inhibitory activity against PDE4 enzymes by the following assay Method A or B.
PDE4 assay based on modified procedure of Phosphodiesterase [^3H]cAMP SPA Enzyme Assay (Amersham Biosciences, code TRKQ 7090). In this assay, PDE4 enzymes converts [^3H]cAMP to [^3H]5′-AMP. The assay is quenched by the addition of SPA yttrium silicate beads which preferentially bind linear nucleotides over cyclic nucleotides in the presence of zinc sulphate.
Reactions were performed in duplicate by the addition of 10 μl PDE4 enzyme (U937 lysate or recombinant hPDE4) to 20 μL of assay mix and 20 μL of test compounds in Isoplates (Wallac) for 30 minutes, at 37° C. The final assay mixture contained: 50 mM Tris (pH 7.5), 8.3 mM MgCl2, 1.7 mM EGTA and [^3H]cAMP (0.025 μCi) (Amersham). Assay was terminated by addition 25 μL SPA beads. The plate was sealed, shaken for 1 minute and then allowed to settle 30 minutes and the cpm determined using a Wallac Micobeta.

pIC50	SMILES
6.34	COc1ccc([C@H]2CNC(=O)C(CC(=O)Nc3cccnc3)C2)cc1OC1CCCC1 (stereo partly drawn) [2-((5S)-5-(3-(cyclopentyloxy)-4-methoxyphenyl)-2-oxopiperidin-3-yl)-N-(pyridin-3-yl)acetamide]
5.93	COc1ccc([C@H]2CNC(=O)C(CC(=O)O)C2)cc1OC1CCCC1 (stereo partly drawn) [2-((5S)-5-(3-(cyclopentyloxy)-4-methoxyphenyl)-2-oxopiperidin-3-yl)acetic acid]
5.83	COc1ccc([C@H]2CNC(=O)[C@@H](CC3CCOC3)C2)cc1OC1CCCC1 (stereo partly drawn) [(3R,5S)-5-(3-(cyclopentyloxy)-4-methoxyphenyl)-3-((tetrahydrofuran-3-yl)methyl)piperidin-2-one]
6.43	COc1ccc2oc(C[C@H]3C[C@@H](c4ccc(OC)c(OC5CCCC5)c4)CNC3=O)cc2c1 [(3R,5S)-5-(3-cyclopentyloxy-4-methoxyphenyl)-3-(5-methoxy-2-benzofurylmethyl)piperidin-2-one]
6.19	COc1ccc([C@H]2CNC(=O)[C@@H](Cc3nc4cc([N+](=O)[O-])ccc4o3)C2)cc1OC1CCCC1 [(3R,5S)-5-(3-cyclopentyloxy-4-methoxyphenyl)-3-(5-nitro-2-benzoxazolylmethyl)piperidin-2-one]
6.31	COc1ccc([C@H]2CNC(=O)[C@H](Cc3cccnc3)C2)cc1OC1CCCC1 [(3S,5S)-5-(3-(cyclopentyloxy)-4-methoxyphenyl)-3-(3-pyridinylmethyl)piperidin-2-one]
6.54	C=CCC1C[C@@H](c2ccc(OC)c(OC3CCCC3)c2)CNC1=O (stereo partly drawn) [(5S)-3-allyl-5-(3-(cyclopentyloxy)-4-methoxyphenyl)piperidin-2-one]
6.35	COc1ccc([C@H]2CNC(=O)C(CC(O)CO)C2)cc1OC1CCCC1 (stereo partly drawn) [(5S)-5-(3-(cyclopentyloxy)-4-methoxyphenyl)-3-(2,3-dihydroxypropyl)piperidin-2-one]
6.67	COc1ccc([C@H]2CNC(=O)C(CCNc3ccccc3)C2)cc1OC1CCCC1 (stereo partly drawn) [(5S)-5-(3-(cyclopentyloxy)-4-methoxyphenyl)-3-(2-(phenylamino)ethyl)piperidin-2-one]
6.73	COc1ccc([C@@H]2CCC(=O)N(C(=O)c3ccccc3)C2)cc1OC1CCCC1 [(S)-1-benzoyl-5-(3-(cyclopentyloxy)-4-methoxyphenyl)piperidin-2-one]
6.37	COc1ccc([C@@H]2CCC(=O)N(Cc3ccccc3)C2)cc1OC1CCCC1 [(S)-1-benzyl-5-(3-(cyclopentyloxy)-4-methoxyphenyl)piperidin-2-one]
6.19	C=CCC1(CC=C)C[C@@H](c2ccc(OC)c(OC3CCCC3)c2)CNC1=O [(S)-3,3-diallyl-5-(3-(cyclopentyloxy)-4-methoxyphenyl)piperidin-2-one]
6.84	COc1ccc([C@@H]2CCC(=O)NC2)cc1-c1ccccc1 [(S)-5-(6-methoxybiphenyl-3-yl)piperidin-2-one]
6.41	COc1ccc([C@H]2CNC(=O)/C(=C/c3cccc(C)c3)C2)cc1OC1CCCC1 [(S,E)-5-(3-(cyclopentyloxy)-4-methoxyphenyl)-3-(3-methylbenzylidene)piperidin-2-one]
